These results are taken from ChEMBL document CHEMBL1201862, “PubChem BioAssay data set” (2004).

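Grown in 96-well plates, cells were treated for 48 hours with each compound at five concentrations. Insufficient inhibition: endpoint recorded as highest concentration tested. Here, GI50 denotes the concentration required for 50% inhibition of growth.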 Active and inactive are the calls of the source. Rule as the data show it: active = GI50 up to about 1.1 µM and inactive = higher. Where only a bound is given, the exact number is not on record here.

Test systems include M14; MCF7; T47D; DU-145; SK-OV-3; CAKI-1; LOX IMVI; NCI-H23; HT-29; 786-0; PC-3; SR; SW-620; SNB-75; SF-295; Malme-3M; MDA-MB-231; COLO 205; OVCAR-5.
Experiment in all cases: NCI anticancer screen, dose series, 48 h

In the case of `O=C(O)C1(C(=O)O)CCN(S(=O)(=O)c2ccccc2)CC1`, the GI50 in the assay with M14, in the assay on MCF7, with T47D, in the assay on DU-145, with SK-OV-3 and with CAKI-1 was > 100 µM (inactive) throughout. The GI50 with LOX IMVI, with NCI-H23, in the assay on HT-29, in the assay on 786-0, with PC-3 and in the assay on SR was > 100 µM (inactive) in each case. Besides, the GI50 with SW-620, with SNB-75, in the assay with SF-295, in the assay with Malme-3M, in the assay with MDA-MB-231 and with COLO 205 was > 100 µM (inactive) each time. In the assay on OVCAR-5, the GI50 is > 100 µM (inactive).

`N#CC(NCCO)=C1C(=O)c2ccccc2C1=O`: the GI50 in the assay on M14, with MCF7, in the assay with T47D, in the assay on DU-145, with SK-OV-3 and in the assay on CAKI-1 was > 100 µM (inactive) throughout. The GI50 in the assay with LOX IMVI, in the assay with NCI-H23, in the assay on HT-29, in the assay on 786-0, with PC-3 and with SR was > 100 µM (inactive) in each case. The GI50 with SW-620, with SNB-75, in the assay with SF-295, in the assay on Malme-3M, in the assay with MDA-MB-231 and in the assay with COLO 205 was > 100 µM (inactive) throughout. Moreover, the GI50 with OVCAR-5 is > 100 µM (inactive).

Take `C=C(CCC(C)C1CCC2C3=C(C(=O)CC21C)C1(C)CCC(=O)[C@@H](C)C1CC3=O)C(C)C(=O)O` (stereo not given in full): the GI50 is > 100 µM (inactive) in the assay on M14; > 100 µM (inactive) with MCF7; 30.7 µM (inactive) with T47D; > 100 µM (inactive) in the assay on DU-145; 0.51 µM (active) in the assay on SK-OV-3; 30.7 µM (inactive) in the assay with CAKI-1. The GI50 is 17.4 µM (inactive) in the assay with LOX IMVI; 38.9 µM (inactive) in the assay with NCI-H23; 87.7 µM (inactive) in the assay with HT-29; 18.3 µM (inactive) in the assay with 786-0; 33.6 µM (inactive) in the assay with PC-3; 35.2 µM (inactive) with SR. Further, the GI50 is 68.2 µM (inactive) in the assay with SW-620; 42.4 µM (inactive) in the assay with SNB-75; 53.2 µM (inactive) in the assay with SF-295; > 100 µM (inactive) with Malme-3M; 39.3 µM (inactive) with MDA-MB-231; 45.1 µM (inactive) with COLO 205. The GI50 with OVCAR-5 is > 100 µM (inactive).

Consider `CCCCCCCC1c2cc3nc(cc4[nH]c(cc5nc(cc([nH]2)[C@@]1(C)CC(=O)N(C)C)C(C)=C5CCC(=O)O)c(CCC(=O)O)c4C)C=C3C` (stereo not given in full), for which the GI50 is 14.7 µM (inactive) with M14; 32.1 µM (inactive) in the assay on MCF7; 34.9 µM (inactive) with T47D; 21.4 µM (inactive) with DU-145; 40.6 µM (inactive) with SK-OV-3; 39 µM (inactive) in the assay with CAKI-1. Moreover, the GI50 in the assay on LOX IMVI is 17.6 µM (inactive); in the assay with NCI-H23, 18.5 µM (inactive); in the assay on HT-29 it was 18.6 µM (inactive); in the assay on 786-0 it was 29.5 µM (inactive); in the assay with PC-3 it was 23.8 µM (inactive); in the assay on SR, 19.9 µM (inactive). The GI50 in the assay with SW-620 is 42.8 µM (inactive); with SNB-75, 18.7 µM (inactive); in the assay with SF-295 it was 18.9 µM (inactive); in the assay with Malme-3M it was 19.9 µM (inactive); in the assay with MDA-MB-231, 17 µM (inactive); with COLO 205, 16.7 µM (inactive). Moreover, the GI50 in the assay on OVCAR-5 is 25.5 µM (inactive).

As to `O=C(Cl)C1=C(c2ccccc2)C1c1ccccc1` (stereo not given), the GI50 in the assay with M14, with MCF7, with T47D, in the assay on DU-145, with SK-OV-3 and in the assay with CAKI-1 was > 100 µM (inactive) throughout. Moreover, the GI50 with LOX IMVI, in the assay on NCI-H23, in the assay with HT-29, with 786-0, in the assay with PC-3 and in the assay on SR was > 100 µM (inactive) each time. Also, the GI50 with SW-620, in the assay with SNB-75, in the assay with SF-295, with Malme-3M, in the assay with MDA-MB-231 and in the assay with COLO 205 was > 100 µM (inactive) throughout. The GI50 in the assay on OVCAR-5 is > 100 µM (inactive).

With `CCOc1nc(N)nc(C)c1/N=N/c1ccc(Cl)cc1`, the GI50 with M14 was > 100 µM (inactive); in the assay with MCF7, > 100 µM (inactive); with T47D, 73.8 µM (inactive); in the assay with DU-145 it was > 100 µM (inactive); with SK-OV-3, > 100 µM (inactive); in the assay on CAKI-1, > 100 µM (inactive). Moreover, the GI50 in the assay on LOX IMVI is > 100 µM (inactive); in the assay with NCI-H23 it was > 100 µM (inactive); in the assay on HT-29, > 100 µM (inactive); in the assay with 786-0, > 100 µM (inactive); in the assay on PC-3, 82.8 µM (inactive); in the assay on SR, 1.86 µM (inactive). Besides, the GI50 with SW-620 was > 100 µM (inactive); with SNB-75, > 100 µM (inactive); with SF-295, 25.5 µM (inactive); with Malme-3M, 34.4 µM (inactive); in the assay on MDA-MB-231 it was > 100 µM (inactive); in the assay on COLO 205, > 100 µM (inactive). Further, in the assay on OVCAR-5, the GI50 is > 100 µM (inactive).

With `CC(C)NC(=O)OCc1c(COC(=O)NC(C)C)c(-c2ccc[n+](COC(=O)C(C)C)c2)n2c1CCC2`, the GI50 in the assay with M14 was 61.5 µM (inactive); with MCF7, 55.6 µM (inactive); in the assay on T47D it was > 81.3 µM (inactive); in the assay with DU-145, 65.8 µM (inactive); in the assay on SK-OV-3, > 100 µM (inactive); in the assay with CAKI-1, 17.3 µM (inactive). Further, the GI50 with LOX IMVI was 37.7 µM (inactive); in the assay with NCI-H23 it was 33.5 µM (inactive); in the assay with HT-29 it was 73.8 µM (inactive); in the assay on 786-0, 34.6 µM (inactive); in the assay with PC-3, 59.3 µM (inactive); with SR it was 8.53 µM (inactive). Further, the GI50 with SW-620 is 55.3 µM (inactive); in the assay with SNB-75 it was 52.1 µM (inactive); in the assay with SF-295 it was 68.9 µM (inactive); in the assay with Malme-3M, > 63.5 µM (inactive); in the assay on MDA-MB-231, > 100 µM (inactive); in the assay with COLO 205 it was > 72.3 µM (inactive). In addition, in the assay with OVCAR-5, the GI50 is > 100 µM (inactive).

On to `N#Cc1nc(C#N)c(N)[nH]1`, for which the GI50 in the assay on M14, in the assay with MCF7, in the assay with T47D, in the assay on DU-145, in the assay on SK-OV-3 and in the assay with CAKI-1 was > 100 µM (inactive) throughout. The GI50 with LOX IMVI, in the assay on NCI-H23, with HT-29, with 786-0, in the assay on PC-3 and in the assay on SR was > 100 µM (inactive) throughout. For the same molecule, the GI50 in the assay with SW-620, in the assay on SNB-75, in the assay on SF-295, with Malme-3M, with MDA-MB-231 and in the assay with COLO 205 was > 100 µM (inactive) throughout. For the same molecule, in the assay with OVCAR-5, the GI50 is > 100 µM (inactive).

Consider `COC(=O)C1=C(O)C(C(=O)OC)[C@@]2(O)[C@@H](C(=O)OC)C(c3ccc(OC(=O)/C=C/c4ccccc4)cc3)C[C@@H]1[C@@H]2C(=O)OC` (stereo not given in full), for which the GI50 in the assay on M14 was 6.84 µM (inactive); in the assay on MCF7 it was 2.99 µM (inactive); in the assay on T47D, 8.49 µM (inactive); in the assay on DU-145 it was 11 µM (inactive); in the assay on SK-OV-3 it was 75.5 µM (inactive); in the assay with CAKI-1, 7.36 µM (inactive). The GI50 with LOX IMVI was 2.31 µM (inactive); in the assay with NCI-H23, 13.3 µM (inactive); in the assay with HT-29 it was 3.66 µM (inactive); in the assay on 786-0 it was 10 µM (inactive); in the assay with PC-3, 6.84 µM (inactive); with SR it was 3.02 µM (inactive). The GI50 was 6.01 µM (inactive) in the assay on SW-620; 29.6 µM (inactive) in the assay with SNB-75; 23.9 µM (inactive) with SF-295; 25.1 µM (inactive) in the assay on Malme-3M; 14.7 µM (inactive) with MDA-MB-231; 10.1 µM (inactive) in the assay with COLO 205. The GI50 with OVCAR-5 is 12.1 µM (inactive).

Regarding `CN(C)CCn1c(=O)c2ccc(NCCNCCO)c3c(=O)c4cc(O)ccc4n(c1=O)c23`, the GI50 was 2.69 µM (inactive) in the assay with M14; 0.465 µM (active) with MCF7; 2.31 µM (inactive) in the assay on T47D; 0.875 µM (active) with DU-145; 5.55 µM (inactive) in the assay on SK-OV-3; 0.938 µM (active) with CAKI-1. In addition, the GI50 in the assay on LOX IMVI is 0.91 µM (active); with NCI-H23, 1.01 µM (active); in the assay on HT-29 it was 0.665 µM (active); in the assay with 786-0, 0.617 µM (active); with PC-3, 1.69 µM (inactive); in the assay on SR it was < 0.0352 µM (active). Further, the GI50 with SW-620 is 0.532 µM (active); with SNB-75, 1.2 µM (inactive); in the assay with SF-295 it was 1.6 µM (inactive); with Malme-3M, 2.42 µM (inactive); in the assay on MDA-MB-231, 0.586 µM (active); in the assay with COLO 205, 0.634 µM (active). Besides, the GI50 in the assay with OVCAR-5 is 1.79 µM (inactive).
